Some test systems named below: HS 578T breast; U251 CNS; NCI-H23 lung; UACC-257 melanoma; OVCAR-3 ovarian; A498 renal; SK-MEL-28 melanoma; T-47D breast; HL-60(TB) leukemia; OVCAR-5 ovarian.
Holding throughout (test): inhibition of tumour cell growth, NCI panel, 48 h

“And” between values parts separate entries of the source, which are not always exact repeats. Equal values may be shown once.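 Exposure lasted 48 hours, with cells grown in 96-well plates and compounds tested at five concentrations. At the GI50, growth is halved. At the TGI there is no net growth.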 Where a SMILES comes first, the peptide text is derived from it. [ ]: non-standard residue; d: D form. Orn = NCCC[CH](N)C(=O)O

Turning to `O=C(Nc1cccc2ccccc12)c1cc2ccccc2cc1O`, the GI50 was 1.74 µM in the assay on HS 578T breast; 1.56 µM in the assay with U251 CNS; 1.9 µM in the assay on NCI-H23 lung; 1.6 µM in the assay on UACC-257 melanoma; 2.16 µM with OVCAR-3 ovarian; 1.03 µM in the assay with A498 renal. Further, the GI50 is 3.58 µM in the assay on SK-MEL-28 melanoma, 2.8 µM in the assay with T-47D breast, 2.37 µM with HL-60(TB) leukemia and 3.32 µM in the assay with OVCAR-5 ovarian. The TGI with HS 578T breast came to 6.43 µM; in the assay on U251 CNS, 4.72 µM; in the assay on NCI-H23 lung, 8.84 µM; in the assay with UACC-257 melanoma it was 5.03 µM; with OVCAR-3 ovarian it was 6.85 µM; with A498 renal it was 3.91 µM. Also, the TGI with SK-MEL-28 melanoma came to 22.4 µM; in the assay on T-47D breast, 18.7 µM; in the assay on HL-60(TB) leukemia, 8.22 µM; with OVCAR-5 ovarian, 13 µM.

As for `COc1ccc(-c2oncc2-c2cc(OC)c3c(c2)OCO3)cc1`, the GI50 is 2.49 µM with HS 578T breast; 3.8 µM in the assay on U251 CNS; 4.94 µM with NCI-H23 lung; > 20 µM in the assay with UACC-257 melanoma; 3.15 µM in the assay with OVCAR-3 ovarian; 1.49 µM with A498 renal. Further, the GI50 was 3.21 µM in the assay with SK-MEL-28 melanoma, 4.29 µM in the assay on T-47D breast, 2.53 µM with HL-60(TB) leukemia and 5.14 µM in the assay with OVCAR-5 ovarian. In addition, the TGI with HS 578T breast is 21.2 µM; in the assay with U251 CNS it was > 87.3 µM; in the assay with NCI-H23 lung, > 100 µM; in the assay on UACC-257 melanoma it was > 100 µM; in the assay with OVCAR-3 ovarian it was 39 µM; in the assay on A498 renal it was 7.4 µM. Also, the TGI with SK-MEL-28 melanoma is > 100 µM; in the assay on T-47D breast it was > 100 µM; in the assay with HL-60(TB) leukemia, > 26.5 µM; with OVCAR-5 ovarian, > 100 µM.

For the molecule `CC(C)CC1NC(=O)C(CCCN)NC(=O)C(C(C)C)NC(=O)C2CCCN2C(=O)C(Cc2ccccc2)NC(=O)C(CC(C)C)NC(=O)C(CCCN)NC(=O)C(C(C)C)NC(=O)C2CCCN2C(=O)C(Cc2ccccc2)NC1=O` (stereo not given) (cyclo(FPV[Orn]LFPV[Orn]L); configuration not given here), the GI50 in the assay with HS 578T breast was 0.0166 µM and 0.0453 µM; in the assay with U251 CNS it was < 0.00325 µM; with NCI-H23 lung, 0.00835 µM and 0.0192 µM; in the assay on UACC-257 melanoma, 0.00872 µM and 0.0145 µM; in the assay with OVCAR-3 ovarian, 0.0103 µM and 0.0322 µM; in the assay with A498 renal it was 0.092 µM and 0.106 µM. In addition, the GI50 was 0.0395 µM in the assay on SK-MEL-28 melanoma; < 0.00325 µM in the assay with T-47D breast; 0.0151 µM and 0.0371 µM in the assay with HL-60(TB) leukemia; 0.0117 µM in the assay on OVCAR-5 ovarian. For the same molecule, the TGI was 0.784 µM and 1.64 µM with HS 578T breast; 0.14 µM and 0.117 µM in the assay on U251 CNS; 0.101 µM and 0.175 µM in the assay with NCI-H23 lung; 0.048 µM and 0.0705 µM in the assay on UACC-257 melanoma; 0.211 µM and 1.43 µM with OVCAR-3 ovarian; 0.743 µM and 0.632 µM in the assay on A498 renal. Moreover, the TGI was 0.962 µM and 1.63 µM in the assay with SK-MEL-28 melanoma; 0.433 µM and 1.24 µM in the assay with T-47D breast; 0.104 µM and 0.251 µM in the assay on HL-60(TB) leukemia; 0.968 µM and 1.98 µM in the assay with OVCAR-5 ovarian.

For `N=c1c2c(=O)n3c(nc2nc2sc4ccc(Cl)cc4n12)-c1ccccc1Sc1ccccc1-3`, the GI50 with HS 578T breast was 2.2 µM; in the assay on U251 CNS, 2.8 µM; in the assay on NCI-H23 lung, 1.9 µM; with UACC-257 melanoma it was 3.14 µM; in the assay with OVCAR-3 ovarian, 1.89 µM; in the assay on A498 renal it was 0.371 µM. Also, the GI50 with SK-MEL-28 melanoma was 3.91 µM; in the assay on T-47D breast, 2.54 µM; in the assay on HL-60(TB) leukemia, 2.21 µM; in the assay on OVCAR-5 ovarian, 4.62 µM. Moreover, the TGI in the assay on HS 578T breast amounted to 10.1 µM; with U251 CNS, 12.6 µM; in the assay with NCI-H23 lung it was 7.49 µM; in the assay on UACC-257 melanoma, 9.39 µM; in the assay on OVCAR-3 ovarian, 8.27 µM; in the assay on A498 renal, 3.6 µM. In addition, the TGI in the assay with SK-MEL-28 melanoma is 16.4 µM; with T-47D breast it was 7.23 µM; in the assay on HL-60(TB) leukemia, 6.63 µM; in the assay with OVCAR-5 ovarian, 24 µM.

As to `CNC(=S)N/N=C(/C)CCC/C(C)=N/NC(=S)NC`, the TGI with HS 578T breast is > 100 µM; in the assay with U251 CNS, > 100 µM; in the assay with NCI-H23 lung, > 100 µM; in the assay with UACC-257 melanoma, > 100 µM; in the assay on OVCAR-3 ovarian it was > 93.2 µM; in the assay on A498 renal it was > 100 µM. The TGI in the assay on SK-MEL-28 melanoma, in the assay on T-47D breast, in the assay with HL-60(TB) leukemia and in the assay on OVCAR-5 ovarian was > 100 µM in each case.

Regarding `COC(=O)/C(Br)=C/c1c[nH]c2ccc(Br)cc12`, the GI50 is 1.71 µM in the assay on HS 578T breast; 10.2 µM in the assay with U251 CNS; 15.3 µM in the assay with NCI-H23 lung; 24.1 µM in the assay on UACC-257 melanoma; 16.2 µM with OVCAR-3 ovarian; 7.98 µM in the assay on A498 renal. Also, the GI50 in the assay with SK-MEL-28 melanoma was 14.3 µM; in the assay on T-47D breast, 11.1 µM; with HL-60(TB) leukemia, 61.3 µM; with OVCAR-5 ovarian, 13.6 µM. The TGI in the assay on HS 578T breast was determined as 17.1 µM; in the assay with U251 CNS, 28.6 µM; with NCI-H23 lung it was 33 µM; in the assay with UACC-257 melanoma it was 69.4 µM; in the assay with OVCAR-3 ovarian it was 66.9 µM; with A498 renal, 20.9 µM. Besides, the TGI is 27.8 µM in the assay with SK-MEL-28 melanoma, 24.5 µM with T-47D breast, > 100 µM in the assay with HL-60(TB) leukemia and 31.3 µM in the assay on OVCAR-5 ovarian.

The record behind these values is PubChem BioAssay (NCI).
